Assay: Henry solubility constant Hcp at 298.15 K (mol/(m3 Pa))
Conditions: reference: Albanese et al. (1987)

SMILES	Henry solubility constant Hcp
ClCC(Cl)CCl [1,2,3-trichloropropane]	0.033
CC(Br)CBr (stereo not given) [1,2-dibromopropane]	0.0053
CC(Cl)CCl (stereo not given) [1,2-dichloropropane]	0.0049
ClCCCCl [1,3-dichloropropane]	0.0085
ClCCCCCl [1,4-dichlorobutane]	0.012
C=C(Cl)CCl [2,3-dichloropropene]	0.0035
ClC/C=C/CCl [(E)-1,4-dichloro-2-butene]	0.017
ClC/C=C\CCl [(Z)-1,4-dichloro-2-butene]	0.01
Cl/C=C\CCl [cis-1,3-dichloropropene]	0.0042
Cl/C=C/CCl [trans-1,3-dichloropropene]	0.0056

Source: Sander's compilation of Henry's law constants (doi:10.1080/09593338709384529)
